Data as given in the NIST ThermoML archive (doi:10.1021/acs.jced.8b00888).
± gives the expanded uncertainty stated by the source.

Tests used:
[1] = Crystal; DTA
[2] = Molar enthalpy of transition or fusion; conditions: Crystal; DSC

Normal melting temperature [1]: 85.40 ± 1.1 °C | Molar enthalpy of transition or fusion [2]: 3.92 ± 0.406 kcal/mol
Structure (SMILES): Cc1nc(C)c(C)nc1C [tetramethylpyrazine]
